From ChEMBL document CHEMBL1201862, “PubChem BioAssay data set” (2004)
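Protocol summary: plate cells (96-well), add compound at 5 concentrations, incubate 48 h, interpolate endpoints linearly. Abbreviation: GI50, concentration required for 50% inhibition of growth.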 Calls of active or inactive are those of the source. Cut-off read from the data, not from the text of the source: active = GI50 up to about 1.1 µM and inactive = higher.

How the values were obtained:
Assay in all cases: NCI tumour cell line growth inhibition, 48 h
[1] = tested on: TK-10
[2] = tested on: MCF7
[3] = tested on: NCI-H226
[4] = tested on: HT-29
[5] = tested on: UO-31
[6] = tested on: COLO 205
[7] = tested on: MDA-MB-231
[8] = tested on: LOX IMVI
[9] = tested on: SK-MEL-28
[10] = tested on: EKVX
[11] = tested on: MDA-N
[12] = tested on: K562
[13] = tested on: ACHN
[14] = tested on: UACC-257
[15] = tested on: NCI-H522
[16] = tested on: 786-0
[17] = tested on: SK-MEL-2
[18] = tested on: NCI-H460
[19] = tested on: SK-OV-3

Measured: GI50

Cn1c(=O)c2c(nc(C(=N)SCC(=O)O)n2C)n(C)c1=O
inactive: [1] 40.6 µM | [2] 38.5 µM | [3] 58.9 µM | [4] 48.2 µM | [5] 41.8 µM | [6] 31.3 µM | [7] > 100 µM | [8] 48.1 µM | [9] 37.7 µM | [10] 29.1 µM | [11] 36.2 µM | [12] 27 µM | [13] 41 µM | [14] 29.1 µM | [15] 41.9 µM | [16] 45.7 µM | [17] 39.2 µM | [18] 29.6 µM | [19] 61.8 µM

CC[C@@H]1CN(C)[C@H]2Cc3c([nH]c4ccccc34)C(=O)C[C@H]1C2C(=O)OC (stereo partly drawn)
inactive: [1] > 58.9 µM | [2] > 100 µM | [3] > 100 µM | [4] > 100 µM | [5] > 100 µM | [6] > 100 µM | [7] > 100 µM | [8] > 100 µM | [9] > 100 µM | [10] > 100 µM | [11] > 100 µM | [12] > 100 µM | [13] > 100 µM | [14] > 100 µM | [15] > 100 µM | [16] > 100 µM | [17] > 100 µM | [18] > 100 µM | [19] > 100 µM

FC1CCN(C2(c3cccs3)CCCCC2)CC1
inactive: [1] > 100 µM | [2] > 100 µM | [3] > 100 µM | [4] 47.8 µM | [5] > 100 µM | [6] > 100 µM | [7] > 100 µM | [8] 96.6 µM | [9] > 100 µM | [10] > 100 µM | [11] > 100 µM | [12] > 100 µM | [13] > 100 µM | [14] 60.4 µM | [15] > 100 µM | [16] > 100 µM | [17] > 100 µM | [18] > 100 µM | [19] > 100 µM

Nc1ccc(S(=O)(=O)Nc2nc3ccccc3nc2Nc2ccc(S(N)(=O)=O)cc2)cc1
inactive: [1] 44.6 µM | [2] 57.8 µM | [3] 56.4 µM | [4] 57.8 µM | [5] 18.2 µM | [6] 52.6 µM | [7] 53.8 µM | [8] 17.9 µM | [9] 30.2 µM | [10] 75.7 µM | [11] 56.6 µM | [12] 69.8 µM | [13] 42.7 µM | [14] 46 µM | [15] 23.3 µM | [16] 58.3 µM | [17] 19.1 µM | [18] > 100 µM | [19] 29.8 µM

CCC(=O)C1(N2CCOCC2)CCN(CCCC(=O)c2ccc(F)cc2)CC1
inactive: [1] > 100 µM | [2] > 100 µM | [3] > 100 µM | [4] 39.2 µM | [5] > 100 µM | [6] > 100 µM | [7] > 100 µM | [8] > 100 µM | [9] > 100 µM | [10] > 100 µM | [11] > 100 µM | [12] > 100 µM | [13] > 100 µM | [15] > 100 µM | [16] > 100 µM | [17] > 100 µM | [18] > 100 µM | [19] > 100 µM

CC(C)CC(NC(=O)C(CCI)Cc1ccccc1)C(=O)Nc1ccccc1 (stereo not drawn)
inactive: [1] 88.7 µM | [2] 39.7 µM | [3] 58.6 µM | [5] 22.1 µM | [6] 95.9 µM | [7] > 100 µM | [8] 33.3 µM | [9] > 100 µM | [10] 42 µM | [11] > 100 µM | [12] 44.6 µM | [13] 53.5 µM | [14] > 100 µM | [15] 27.7 µM | [16] > 100 µM | [17] > 100 µM | [18] 80.2 µM | [19] > 100 µM

O=C(O)C(Br)C(Br)C(=O)O (stereo not drawn)
inactive: [1] > 100 µM | [2] > 100 µM | [3] > 100 µM | [4] > 100 µM | [5] > 100 µM | [6] > 100 µM | [7] > 100 µM | [8] > 100 µM | [9] > 100 µM | [10] > 100 µM | [11] > 100 µM | [12] > 100 µM | [13] > 100 µM | [14] > 100 µM | [15] > 100 µM | [16] > 100 µM | [17] > 100 µM | [18] > 100 µM | [19] > 100 µM

O=C1c2n[nH]nc2C(=O)c2n[nH]nc21
inactive: [1] > 100 µM | [2] > 100 µM | [3] > 39.2 µM | [4] > 100 µM | [5] > 100 µM | [6] > 100 µM | [7] > 100 µM | [8] > 100 µM | [9] > 100 µM | [10] > 100 µM | [11] > 100 µM | [12] > 100 µM | [13] > 100 µM | [14] > 100 µM | [15] > 100 µM | [16] > 100 µM | [17] > 100 µM | [18] > 100 µM | [19] > 100 µM

O=c1c2ccccc2[nH]c(=S)n1-c1ccc(/N=N/c2cccc3cc(O)ccc23)cc1
inactive: [1] > 100 µM | [2] 27 µM | [3] > 100 µM | [4] > 100 µM | [5] > 100 µM | [6] 44.5 µM | [7] 48.4 µM | [8] 43.5 µM | [9] > 100 µM | [10] > 100 µM | [11] > 100 µM | [12] 73.6 µM | [13] > 100 µM | [14] > 100 µM | [15] > 100 µM | [16] 65.5 µM | [17] > 100 µM | [18] > 100 µM | [19] > 100 µM

CC(C)(C)c1cc2c(O)c(c1)Cc1cc(C(C#N)(Cc3ccc4ccccc4c3)Cc3ccc4ccccc4c3)cc(c1O)Cc1cc(C(C)(C)C)cc(c1O)Cc1cc(C(C#N)(Cc3ccc4ccccc4c3)Cc3ccc4ccccc4c3)cc(c1O)C2
inactive: [1] > 100 µM | [2] > 100 µM | [3] > 100 µM | [4] > 100 µM | [5] > 100 µM | [6] > 100 µM | [7] > 100 µM | [8] > 100 µM | [9] > 100 µM | [10] > 100 µM | [11] > 100 µM | [12] > 100 µM | [13] > 100 µM | [14] > 100 µM | [15] > 100 µM | [16] > 100 µM | [17] > 100 µM | [18] > 100 µM | [19] > 100 µM

Nc1c(C(=O)c2ccc(Cl)cc2)[nH]c(Nc2ccc(Cl)cc2)c1C(=S)Nc1ccccc1
inactive: [1] 5.4 µM | [2] 4.41 µM | [3] 3.64 µM | [4] 4.99 µM | [5] 3.73 µM | [6] 4.13 µM | [7] 4.55 µM | [8] 3.64 µM | [9] 4.27 µM | [10] 4.9 µM | [11] 6.76 µM | [12] 3.29 µM | [13] 2.21 µM | [14] 11.2 µM | [15] 4.83 µM | [16] 2.9 µM | [17] 11.7 µM | [18] 6.58 µM | [19] 6.52 µM

CCOC(=O)/C(=C\c1ccc(F)cc1)C(C)=O
inactive: [1] 21.6 µM | [2] 29.4 µM | [3] 35.5 µM | [4] 24.4 µM | [5] 16.2 µM | [6] 36 µM | [7] 22.6 µM | [8] 17.5 µM | [10] 22.3 µM | [11] 37.8 µM | [12] 30.3 µM | [13] 21.6 µM | [14] 19.2 µM | [15] 14.3 µM | [16] 22.3 µM | [17] 21.2 µM | [18] 32.5 µM | [19] 35 µM

COC(=O)[C@]12CC[C@H]3CN(C(=O)OCc4ccccc4)[C@H]([C@H]31)[C@H](c1ccco1)N2
inactive: [1] > 100 µM | [2] 42.3 µM | [3] 69.7 µM | [4] 81.3 µM | [5] > 100 µM | [6] 20.1 µM | [7] 82 µM | [8] 53.2 µM | [9] 51.3 µM | [10] 39.9 µM | [11] 30.8 µM | [12] 30.4 µM | [13] 43.5 µM | [14] 29.9 µM | [15] 14.1 µM | [16] 77.8 µM | [17] 55.1 µM | [18] 45.6 µM | [19] > 100 µM

CC(=O)Oc1ccc2c(c1)CC[C@@H]1C2[C@@H](O[N+](=O)[O-])C[C@@]2(C)C1CC[C@@H]2O (stereo partly drawn)
inactive: [1] 49.8 µM | [2] 41 µM | [3] 48.8 µM | [4] 30.8 µM | [5] 43.9 µM | [6] 50.8 µM | [7] 39.1 µM | [8] 27.7 µM | [9] 48.9 µM | [10] 16.8 µM | [11] 5.83 µM | [12] 11.9 µM | [13] 61.1 µM | [14] 67.5 µM | [15] 21.1 µM | [16] 33.8 µM | [17] 32.1 µM | [18] 35.3 µM | [19] 62.5 µM
